Reference: the NIST ThermoML archive (doi:10.1021/je700344f)
Values joined by “and” are separate entries in the source; they are usually repeats but may differ in a detail not shown here. Identical values can stand only once.

Assays:
[1] = 101.33 kPa, Liquid
[2] = xn = mol fraction of the nth substance listed; conditions: 101 kPa, Liquid

C1COCCO1 [1,4-dioxane]
[1]
Conditions | mass density [kg/m3] | viscosity [mPa·s]
283.15 K | 1046.91 | 1.59
293.15 K | 1035.03 | 1.312
303.15 K | 1022.71 | 1.102
313.15 K | 1011.32 | 0.946
323.15 K | 999.12 | 0.825
333.15 K | 987.92 | 0.721
343.15 K | 976.61 | 0.64

CN(C)c1ccccc1 [N,N-dimethylaniline]
[1]
Conditions | mass density [kg/m3] | viscosity [mPa·s]
283.15 K | 969.97 | 1.696
293.15 K | 963.01 | 1.439
303.15 K | 956.21 | 1.17
313.15 K | 948.34 | 0.981
323.15 K | 940.24 | 0.928
333.15 K | 932.71 | 0.911
343.15 K | 924.08 | 0.841

CCCCCCO [hexan-1-ol]
[1]
Conditions | mass density | viscosity
283.15 K | 828.23 kg/m3 | 7.459 mPa·s
293.15 K | 821.01 kg/m3 | 5.335 mPa·s
303.15 K | 815.92 kg/m3 and 813.96 kg/m3 | 3.763 mPa·s and 3.917 mPa·s
313.15 K | 810.91 kg/m3 | 2.937 mPa·s
323.15 K | 806.84 kg/m3 and 804.22 kg/m3 | 2.172 mPa·s and 2.276 mPa·s
333.15 K | 802.91 kg/m3 | 1.654 mPa·s
343.15 K | 798.64 kg/m3 | 1.411 mPa·s

CCCCCCO [hexan-1-ol] + C1COCCO1
[2]
Conditions | mass density [kg/m3] | viscosity [mPa·s]
283.15 K, x2 = 0.1835 | 860.24 | 4.488
283.15 K, x2 = 0.2675 | 873.31 | 3.52
283.15 K, x2 = 0.385 | 896.72 | 2.785
283.15 K, x2 = 0.4933 | 916.23 | 2.324
283.15 K, x2 = 0.5935 | 938.47 | 2.007
283.15 K, x2 = 0.6866 | 957.86 | 1.815
283.15 K, x2 = 0.7731 | 981.11 | 1.691
283.15 K, x2 = 0.8795 | 1013.54 | 1.601
293.15 K, x2 = 0.1835 | 853.33 | 3.221
293.15 K, x2 = 0.2675 | 865.64 | 2.707
293.15 K, x2 = 0.385 | 889.2 | 2.184
293.15 K, x2 = 0.4933 | 903.63 | 1.845
293.15 K, x2 = 0.5935 | 929.82 | 1.626
293.15 K, x2 = 0.6866 | 951.11 | 1.554
293.15 K, x2 = 0.7731 | 973.8 | 1.395
293.15 K, x2 = 0.8795 | 1002.74 | 1.311
303.15 K, x2 = 0.1835 | 845.02 | 2.632
303.15 K, x2 = 0.2675 | 857.53 | 2.121
303.15 K, x2 = 0.385 | 879.87 | 1.748
303.15 K, x2 = 0.4933 | 898.36 | 1.506
303.15 K, x2 = 0.5935 | 920.31 | 1.339
303.15 K, x2 = 0.6866 | 941.43 | 1.238
303.15 K, x2 = 0.7731 | 963.84 | 1.173
303.15 K, x2 = 0.8795 | 990.21 | –
313.15 K, x2 = 0.1835 | 836.88 | 2.285
313.15 K, x2 = 0.2675 | 849.44 | 1.705
313.15 K, x2 = 0.385 | 871.16 | 1.431
313.15 K, x2 = 0.4933 | 889.72 | 1.254
313.15 K, x2 = 0.5935 | 909.94 | 1.127
313.15 K, x2 = 0.6866 | 931.85 | 1.053
313.15 K, x2 = 0.7731 | 953.63 | 1.002
313.15 K, x2 = 0.8795 | 980.82 | 0.965
323.15 K, x2 = 0.1835 | 829.74 | 1.699
323.15 K, x2 = 0.2675 | 841.13 | 1.403
323.15 K, x2 = 0.385 | 864.56 | 1.196
323.15 K, x2 = 0.4933 | 880.42 | 1.056
323.15 K, x2 = 0.5935 | 900.9 | 0.964
323.15 K, x2 = 0.6866 | 921.84 | 0.907
323.15 K, x2 = 0.7731 | 943.38 | 0.869
323.15 K, x2 = 0.8795 | 971.57 | 0.843
333.15 K, x2 = 0.1835 | 821.17 | 1.289
333.15 K, x2 = 0.2675 | 833.54 | 1.16
333.15 K, x2 = 0.385 | 856.26 | 1.012
333.15 K, x2 = 0.4933 | 869.91 | 0.903
333.15 K, x2 = 0.5935 | 890.93 | 0.839
333.15 K, x2 = 0.6866 | 911.92 | 0.792
333.15 K, x2 = 0.7731 | 933.31 | 0.763
333.15 K, x2 = 0.8795 | 958.09 | 0.742
343.15 K, x2 = 0.1835 | 815.14 | 1.074
343.15 K, x2 = 0.2675 | 824.52 | 0.975
343.15 K, x2 = 0.385 | 843.77 | 0.863
343.15 K, x2 = 0.4933 | 862.93 | 0.786
343.15 K, x2 = 0.5935 | 881.04 | 0.732
343.15 K, x2 = 0.6866 | 905.05 | 0.748
343.15 K, x2 = 0.7731 | 923.91 | 0.678
343.15 K, x2 = 0.8795 | 947.05 | 0.662
